The record followed here is US10934282B2, “Heteroaromatic modulators of the retinoid-related orphan receptor gamma” (LEO PHARMA A/S, priority 2016, dated 2021).

Molecules are shown by their SMILES.

For experiment [1], the target named is T1, human RORgt nuclear receptor (RORgT ligand binding domain protein) (Homo sapiens, UniProt P51449).
T1 construct: purchased Proteros Biostructures GmbH
T1 sequence (P51449 with tags, fused parts or gaps): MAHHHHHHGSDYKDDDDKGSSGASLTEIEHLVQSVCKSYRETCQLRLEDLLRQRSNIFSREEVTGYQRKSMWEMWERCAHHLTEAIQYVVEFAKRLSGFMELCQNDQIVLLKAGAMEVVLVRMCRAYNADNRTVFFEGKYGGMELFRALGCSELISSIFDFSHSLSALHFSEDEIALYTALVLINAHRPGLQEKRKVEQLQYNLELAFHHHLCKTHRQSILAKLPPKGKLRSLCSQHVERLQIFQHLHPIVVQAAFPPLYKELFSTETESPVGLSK
Nature of the experiment: ROR-gamma binding assay (Scintillation Proximity Assay, displacement of [3H]-25-hydroxycholesterol). As to conditions: EC50, SPA, 15 nM [3H]-25-Hydroxycholesterol, RORgT LBD 12 nM. On the procedure: This assay is used to evaluate the binding affinity of compounds to the ligand-binding pocket of the human RORgt nuclear receptor based on displacement of a radio-ligand. The EC50 values are calculated using a four parameter fit. Compounds binding with high affinity to RORgt will have low EC50 values.
The assay is a Scintillation Proximity Assay (SPA) that involves competition between an unlabeled test compound and tritium-labeled 25-hydroxycholesterol for binding to RORgT ligand binding domain (LBD) protein immobilized on the surface of SPA beads. These beads contain a scintillant that emits light if excited by a radioactive particle, and this light is detected using a scintillation counter. In this assay, tritium-labelled 25-hydroxycholesterol is used as radiotracer.
400 nL of titrated test and reference compounds in DMSO were transferred by the Echo liquid handling system to a 384-well assay plate followed by addition of 5 μL [3H]-25-Hydroxycholesterol (Perkin Elmer) and 35 μL diluted RORgT LBD protein with the following amino acid sequence (HIS-FLG-tag): MAHHHHHHGSDYKDDDDKGSSGASLTEIEHLVQSVCKSYRETCQLRLEDLLRQRSNIFSREEVTGYQRKSMWEMWERCAHHLTEAIQYVVEFAKRLSGFMELCQNDQIVLLKAGAMEVVLVRMCRAYNADNRTVFFEGKYGGMELFRALGCSELISSIFDFSHSLSALHFSEDEIALYTALVLINAHRPGLQEKRKVEQLQYNLELAFHHHLCKTHRQSILAKLPPKGKLRSLCSQHVERLQIFQHLHPIVVQAAFPPLYKELFSTETESPVGLSK (SEQ ID NO: 1) (Purchased from Proteros Biostructures GmbH). After 30 min of preincubation, 40 μL of HIS-TAG PVT SPA beads (Perkin Elmer) were added. The plates were then incubated for minimum 4 hours at room temperature in darkness before measuring the SPA signal using a MicroBeta plate scintillation counter. Final assay conditions were: 50 mM HEPES pH 7.4, 150 mM NaCl, 5 mM MgCl2, 0.1% BSA, 4 μg/well HIS-TAG PVT SPA Beads, 30 ng/well RORgT LBD (equal to a final concentration of 12 nM), 15 nM [^3H]-25-Hydroxycholesterol, 0.5% DMSO and varying concentrations of test compound in a total volume of 80 μL/well. EC50 values were calculated using a 4-parameter non-linear regression curve-fitting model.

The test system of experiment [2] is IL-17A in Human peripheral mononuclear cells. Nature of the experiment: Human PBMC IL-17A assay. As to conditions: 72 h, EC50, antiCD3/antiCD28-coated beads, 3 days, alpha-LISA. It is filed as cell-based. On the procedure: This assay measures the IL-17A inhibitory potential of test compounds in Human peripheral mononuclear cells.
Peripheral blood mononuclear cells (PBMC) were isolated from human buffy coats using density grade centrifugation (Lymphoprep, Medinor), washed twice in PBS and frozen at −150° C. for later use.
Test compounds were diluted in DMSO and 70 nL of titrated test and reference compounds were transferred by the Echo liquid handling system to a 384-well assay plate in to give a final concentration of 0.1% DMSO in the wells.
The PBMC were thawed, washed and suspended in RPMI-1640 supplemented with pen/strep, glutamax and 10% bovine calf serum. The cells were mixed with antiCD3/antiCD28-coated beads (1 cells pr one bead) (Milteney T-cell expansion kit), and immediately thereafter the cells were pipetted to the plate at 130,000c/well. The plate was incubated for 3 days in humidified air/CO2 (95%/5%) On day 3 the level of IL-17A in the culture supernatant is measured using alpha-LISA kit (Perkin Elmer). Cell viability was measured by adding 6 uL pr well Prestoblue© (Life Technologies) and incubating for 2 hours followed by fluorescent measurement (Ex535/Em615). EC50 values were calculated using a 4-parameter non-linear regression curve-fitting model. Donors may be pre-screened in order to select PBMC with a high secretion of IL-17A.
(In general: In Alpha technology, singlet oxygen from a donor bead excites a nearby acceptor bead.)

The test system of experiment [3] is IL-17A levels in human peripheral blood. In words: tissue or blood. It counts as cell-based. As to conditions: 72 h, read-out: Human Whole blood IL-17A (nM).

For `Cc1c(CN2CCN(C(=O)OC(C)C)[C@@H](C)C2)cc(Cl)cc1Nc1nnc([C@@H](C)O)o1` [Example 39, isopropyl (2S)-4-[[5-chloro-3-[[5-[(1R)-1-hydroxyethyl]-1,3,4-oxadiazol-2-yl]amino]-2-methyl-phenyl]methyl]-2-methyl-piperazine-1-carboxylate], the results for the EC50 in experiment [1], in experiment [2] and in experiment [3] were 29.2 nM, 38.2 nM and 377 nM, respectively.

In the case of `COCc1nnc(Nc2cc(Cl)cc(CN3CCN(C(=O)c4ccccc4F)[C@@H](C)C3)c2C)o1` [Example 9, [(2S)-4-[[5-chloro-3-[[5-(methoxymethyl)-1,3,4-oxadiazol-2-yl]amino]-2-methyl-phenyl]methyl]-2-methyl-piperazin-1-yl]-(2-fluorophenyl)methanone], the EC50 in experiment [1] was found to be 23.5 nM; in experiment [2], 99.3 nM; in experiment [3], 254 nM.

For the molecule `Cc1cc(CN2CCN(C(=O)OC(C)C)[C@@H](C)C2)c(C)c(Nc2nnc(C[C@H](C)O)o2)c1` [Example 60, isopropyl (2S)-4-[[3-[[5-[(2S)-2-hydroxypropyl]-1,3,4-oxadiazol-2-yl]amino]-2,5-dimethyl-phenyl]methyl]-2-methyl-piperazine-1-carboxylate], the EC50 in experiment [1] stood at 38.3 nM; in experiment [2], 106 nM; in experiment [3], 195 nM.

Regarding `Cc1c(CN2CCN(C(=O)OC(C)C)[C@@H](C)C2)cc(Cl)cc1Nc1nnc(C2CNC(=O)C2)o1` (stereo partly drawn) [Example 67, isopropyl (2S)-4-[[5-chloro-2-methyl-3-[[5-(5-oxopyrrolidin-3-yl)-1,3,4-oxadiazol-2-yl]amino]phenyl]methyl]-2-methyl-piperazine-1-carboxylate], the figures for the EC50 in experiment [1], in experiment [2] and in experiment [3] were 62.2 nM, 47.2 nM and 597 nM, respectively.

Take `Cc1c(CN2CCN(C(=O)c3ccccc3)[C@@H](C)C2)cc(Cl)cc1Nc1nnc(C2CC2)o1` [Example 5, [(2S)-4-[[5-chloro-3-[(5-cyclopropyl-1,3,4-oxadiazol-2-yl)amino]-2-methyl-phenyl]methyl]-2-methyl-piperazin-1-yl]-phenyl-methanone]: the EC50 in experiment [1] stood at 22.6 nM; in experiment [2], 69.7 nM; in experiment [3], 385 nM.

Turning to `CC[C@H](O)c1nnc(Nc2cc(C)cc(CN3CCN(C(=O)OC(C)C)[C@@H](C)C3)c2C)o1` [Example 62, isopropyl (2S)-4-[[3-[[5-[(1S)-1-hydroxypropyl]-1,3,4-oxadiazol-2-yl]amino]-2,5-dimethyl-phenyl]methyl]-2-methyl-piperazine-1-carboxylate], the EC50 in experiment [1] came to 20.7 nM; in experiment [2], 67.6 nM; in experiment [3] it was 103 nM.

As for `Cc1cc(CN2CCN(C(=O)C3CCCC3)[C@@H](C)C2)c(C)c(Nc2nnc([C@@H](C)O)o2)c1` [Example 24, cyclopentyl-[(2S)-4-[[3-[[5-[(1R)-1-hydroxyethyl]-1,3,4-oxadiazol-2-yl]amino]-2,5-dimethyl-phenyl]methyl]-2-methyl-piperazin-1-yl]methanone], the EC50 in experiment [1] is 38.6 nM; in experiment [2], 35.9 nM; in experiment [3], 112 nM.

`CC[C@H](N)c1nnc(Nc2cc(Cl)cc(CN3CCN(C(=O)OC(C)C)[C@@H](C)C3)c2C)o1` [Example 38, isopropyl (2S)-4-[[3-[[5-[(1S)-1-aminopropyl]-1,3,4-oxadiazol-2-yl]amino]-5-chloro-2-methyl-phenyl]methyl]-2-methyl-piperazine-1-carboxylate]: the EC50 in experiment [1] stood at 49.7 nM; in experiment [2], 58.5 nM; in experiment [3], 403 nM.

As for `Cc1c(CN2CCN(C(=O)OC(C)C)[C@@H](C)C2)cc(C(F)F)cc1Nc1nnc([C@@H](C)O)o1` [Example 50, isopropyl (2S)-4-[[5-(difluoromethyl)-3-[[5-[(1R)-1-hydroxyethyl]-1,3,4-oxadiazol-2-yl]amino]-2-methyl-phenyl]methyl]-2-methyl-piperazine-1-carboxylate], the EC50 in experiment [1] was determined as 31.6 nM; in experiment [2] it was 86.5 nM; in experiment [3], 272 nM.
